Reference: patent US20230234917A1, “ASPARAGINE DERIVATIVES AND METHODS OF USING SAME” (priority 2020, published 2023)

Experiments:
[1] = molecular target: T1, ClbP (Escherichia coli, UniProt Q0P7K6); assay: ClbP cell lysate activity (inhibition) assay, fluorogenic substrate; assay type: biochemical; conditions: ClbP Lysate Inhibition Assay: IC50, E. coli ClbP+ lysozyme-EDTA lysates, 5 μM fluorogenic substrate, inhibitor 0-300 μM, 37° C., singlicate
Description: Cell Lysate Activity Assay
(§1) 1) E. coli ClbP+ were taken from a frozen stock and streaked onto BHI plates. They were grown aerobically at 37° C. overnight in the incubator.
(§2) 1) A single colony was selected from the plate and inoculated into 30 mL LB in a 50 mL conical vial eight times (240 mL total). The bacteria were grown aerobically overnight (16-20 h) at 37° C. on a nutator with rocking.
1) The saturated overnight culture was centrifuged to create a firm pellet (3,200 g, 10 min, 4° C.). The supernatant was removed and then the pellet was resuspended in 30 mL sterile PBS.
2) The bacteria were centrifuged again (3,200 g, 10 min, 4° C.). The supernatant was removed, and the pellet was resuspended in sterile PBS buffer (3 mL) in each 8 tubes to make a tenfold concentrated bacterial solution.
3) A lysozyme-EDTA (LE) solution was made in ddH2O (0.05 mg/mL lysozyme, 0.25 M EDTA).
4) For each of the eight tubes, LE solution (3 mL) was mixed with concentrated bacterial solution (3 mL). This mixture was incubated at 37° C. for 30 min to generate the lysates.
5) The lysates (192 μL) were mixed with inhibitor (6 μL, final concentration was 300, 100, 33.3, 11.1, 3.7, 1.2, 0.4, or 0 μM). Fluorogenic substrate (2 μL, final concentration 5 μM) was immediately added across the plate to initiate the reaction. As a control, each plate contained Compound No. III in this dose response curve. The final concentration of bacterial lysates was fivefold concentrated compared to the original saturated overnight culture. Carryover from DMSO was 4% (v/v). All compounds were tested in singlicate.
(§3) 6) The plate was loaded into a spectrophotometer preheated to 37° C. The fluorescence was recorded every 2 min for 46 min. The excitation wavelength was 360 nm (20 nm bandwidth), the emission wavelength was 460 nm (20 nm bandwidth), the optics position was bottom, the gain was 65, the light source was a tungsten bulb, and the read speed was normal.
(§4) 7) The linear portion of the fluorescence increase was 0-20 min. The rate of fluorescence increase (A.U./min) for each well in an inhibitor series was normalized to the 0 μM inhibitor condition. The normalized activity as a function of inhibitor concentration was then fit to a three parameter IC50 curve in Graphpad Prism.
(§5) “A” indicates an IC50 value less than 100 μM, “B” indicates an IC50 between 100 and 300 μM, “C” indicates an IC50 above 300 μM.

[2] = molecular target: Full-length WT ClbP (Escherichia coli, UniProt Q0P7K6); assay: ClbP molecular (purified protein) enzymatic inhibition assay, fluorogenic substrate; assay type: biochemical, E. coli
Description: ClbP Molecular (Purified Protein) Assay
1) Full-length WT ClbP was thawed on ice. A diluted enzyme solution (2 nM) was made by mixing 3.57 μL of enzyme with 20 mL of reaction buffer (50 mM Tris pH 8.0, 200 mM NaCl, 0.02% (w/v) n-dodecyl-b-D-maltoside (DDM)).
2) In a 96 well plate, the diluted protein solution (73.5 μL) was mixed with inhibitor (1.5 μL, of varying concentrations, see below) and preincubated for 15 min at room temperature. Then, reaction buffer (75 μL) containing 10 μM fluorogenic substrate was added to initiate the reaction. After addition of substrate, the final concentrations were 1 nM full-length WT ClbP, 5 μM fluorogenic substrate in 50 mM Tris pH 8.0, 200 mM NaCl, 0.02% (w/v) DDM, with either 0, 0.14, 0.41, 1.2, 3.7, 11, 33, or 100 μM inhibitor. For all conditions, the DMSO carryover was 2% (v/v) at the preincubation stage and 1% in the reaction stage. Compound No. III was always present as a control in each plate, and all compounds were tested in singlicate. In previous assays, the Km of the fluorogenic substrate was determined to be approximately 5 μM.
3) Immediately after addition of substrate to enzyme, the plate was transferred into a spectrophotometer held at room temperature. The fluorescence was recorded every 1.5 min for 15 min. The excitation wavelength was 360 nm (20 nm bandwidth), the emission wavelength was 440 nm (20 nm bandwidth), the optics position was bottom, the gain was extended, the light source was a xenon flash lamp, and the read speed was normal.
as §4, with “4)” for “7)”, “is at least from 0-6 min, so this time regime is used.” for “was 0-20 min.”
as §5

[3] = molecular target: T1, ClbP; assay: ClbP whole cell activity (inhibition) assay, fluorogenic substrate; assay type: cell-based, E. coli
Description: Whole Cell Activity Assay
as §1, §2
1) The saturated overnight culture was centrifuged to create a firm pellet (3,200 g, 10 min, 4° C.). In a biosafety cabinet, the supernatant was removed and then the pellet was resuspended in 30 mL sterile PBS.
2) The bacteria were centrifuged again (3,200 g, 10 min, 4° C.). The supernatant was removed, and the pellet was resuspended in sterile PBS buffer (6 mL) in each of the 8 tubes. This fivefold concentrated bacterial solution was the working solution.
3) The bacterial working solution (192 μL) was mixed with inhibitor (6 μL, final concentration was 300, 100, 33.3, 11.1, 3.7, 1.2, 0.4, or 0 μM). Fluorogenic substrate (2 μL, final concentration 5 μM) was immediately added across the plate to initiate the reaction. As a control, each plate contained Compound No. III in this dose response curve. The bacterial concentration was fivefold concentrated compared to the original saturated overnight culture. Carryover from DMSO was 4% (v/v). All compounds were tested in singlicate.
as §3, with “4)” for “6)”
as §4, with “5)” for “7)”, “10-30” for “0-20”
as §5

SMILES | IC50 [1] [µM] | IC50 [2] [µM] | IC50 [3] [µM]
CCCCCCCCCC(=O)N[C@H](CC(N)=O)C(=O)NCCc1ccccc1 [Compound CCLXVI] | < 100 | < 100 | < 100
CC(=O)N[C@H](CC(N)=O)C(=O)NCCc1ccccc1 [Compound CCLXV] | > 300 | 100 to 300 | > 300
CCCCCCCC(=O)N[C@@H](/C=C/C(=O)OCC)CC(N)=O [Compound CCLXXIII] | > 300 | 100 to 300 | > 300
CCCCCCCC(=O)N[C@H](CC(N)=O)C(=O)NCCc1ccc(F)cc1 [Compound CCLXXIV] | < 100 | < 100 | < 100
NC(=O)C[C@@H](NC(=O)CC1CCCCC1)C(=O)NCCc1ccccc1 [Compound CCLXXI] | > 300 | < 100 | 100 to 300
CCCCCCCC(=O)N[C@H](CC(N)=O)C(=O)N(C)CCc1ccc(O)cc1 [Compound CCLXXVII] | < 100 | < 100 | < 100
CCCCCCCC(=O)N[C@H](CC(N)=O)C(=O)N(CCc1ccc(O)cc1)C(C)C [Compound CCLXXVI] | < 100 | < 100 | > 300
CCCCCC(=O)N[C@H](CC(N)=O)C(=O)NCCc1ccc(C(F)(F)F)cc1 [Compound CCLXXV] | > 300 | < 100 | > 300
CCCCCCCC(=O)N[C@H](CC(N)=O)C(=O)C(=O)NCc1ccccc1 [Compound CCLXXXIII] | < 100 | < 100 | < 100
O=C(C[C@@H](NC(=O)CCC1CCCCC1)C(=O)NCCc1ccc(O)c(O)c1)NO [Compound CCLXXXIV] | 100 to 300 | < 100 | 100 to 300
CCCCCCCC(=O)N[C@H]1CC(=O)NC1(O)C(=O)NCc1ccccc1 (stereo partly drawn) [Compound CCLXXXIX] | 100 to 300 | < 100 | 100 to 300
CCCCCCCC(=O)N[C@H](CN[C@@H](C)C(=O)OC)CC(N)=O [Compound CCLXXXI] | > 300 | 100 to 300 | > 300
CCCCCCCC(=O)N[C@H](CC(=O)NOC)C(=O)NCCc1ccc(O)cc1 [Compound CCLXXXV] | 100 to 300 | < 100 | 100 to 300
CCCCCCCC(=O)N[C@@H](CN[C@@H](C)C(=O)OC)CC(N)=O [Compound CCLXXX] | > 300 | 100 to 300 | > 300
NC(=O)C[C@@H](NC(=O)CCCC1CCCCC1)C(=O)NCCc1ccccc1 [Compound CCLXX] | < 100 | < 100 | < 100
NC(=O)C[C@@H](NC(=O)/C=C/CC1CCCC1)C(=O)NCCc1ccc(O)cc1 [Compound CCLX] | < 100 | < 100 | < 100
NC(=O)C[C@@H](NC(=O)CCC1CCCC1)C(=O)NCCc1ccccc1 [Compound CCL] | < 100 | < 100 | < 100

SMILES | IC50 [1] [µM] | IC50 [2] [µM] | IC50 [3] [µM]
CCCCCCCC(=O)N[C@H](CC(N)=O)C(=O)NCCc1ccncc1 [Compound CCVIII] | < 100 | < 100 | < 100
CCCCCCCC(=O)N[C@H](CC(N)=O)c1nc2ccccc2[nH]1 [Compound CCVII] | > 300 | < 100 | > 300
CCCCCCCC(=O)N[C@H](CC(N)=O)C(=O)NCCc1ccsc1 [Compound CCVI] | < 100 | < 100 | < 100
CCCCCCCC(=O)N[C@H](CC(N)=O)C(=O)NCCc1ccccn1 [Compound CCV] | < 100 | < 100 | < 100
CCCCCCCC(=O)N[C@H](CC(=O)NO)C(=O)NCCc1ccc(O)c(O)c1 [Compound CCXCIII] | < 100 | < 100 | < 100
NC(=O)C[C@@H](NC(=O)CCCCC(F)(F)F)C(=O)NCCc1ccc(O)cc1 [Compound CCXCII] | < 100 | < 100 | < 100
O=C(/C=C/C1CCCCC1)N[C@H](CC(=O)NO)C(=O)NCCc1ccc(O)cc1 [Compound CCXCIV] | < 100 | < 100 | < 100
O=C(C[C@@H](NC(=O)CCCC1CCCC1)C(=O)NCCc1ccc(O)cc1)NO [Compound CCXCIX] | < 100 | < 100 | < 100
CN(CCCCCC(=O)N[C@H](CC(N)=O)C(=O)NCCc1ccc(O)cc1)Cc1ccccc1 [Compound CCXCI] | < 100 | < 100 | < 100
O=C(/C=C/CC1CCCC1)N[C@H](CC(=O)NO)C(=O)NCCc1ccc(O)cc1 [Compound CCXCVIII] | < 100 | < 100 | < 100
O=C(/C=C/CC1CCCCC1)N[C@H](CC(=O)NO)C(=O)NCCc1ccc(O)cc1 [Compound CCXCVII] | < 100 | < 100 | < 100
O=C(C[C@@H](NC(=O)CCCC1CCCCC1)C(=O)NCCc1ccc(O)cc1)NO [Compound CCXCVI] | < 100 | < 100 | < 100
O=C(C[C@@H](NC(=O)CCC1CCCCC1)C(=O)NCCc1ccc(O)cc1)NO [Compound CCXCV] | < 100 | < 100 | < 100
CCCCCCCC(=O)N[C@@H]1CC(=O)NC1(O)C(=O)NCCCC (stereo partly drawn) [Compound CCXC] | < 100 | < 100 | < 100
CCCCCCCC(=O)N[C@H](CC(N)=O)C(=O)NCCCc1ccccc1 [Compound CCXIII] | < 100 | < 100 | < 100
CCCCCCC(C)(C)C(=O)N[C@@H](CNCCc1ccccc1)CC(N)=O [Compound CCXII] | > 300 | 100 to 300 | > 300
CCCCCCCC(N[C@H](CC(N)=O)C(=O)NCCc1ccccc1)C(F)(F)F (stereo partly drawn) [Compound CCXIV] | > 300 | < 100 | > 300
